Laboratory results as given in PubChem BioAssay (NCI).
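Where inhibition never reached the appropriate level, the endpoint shown equals the highest concentration tested. Otherwise, values were interpolated linearly from a five-concentration, 48-hour dose response in 96-well plates. The concentration for 50% growth inhibition is given as GI50. TGI: concentration producing complete growth inhibition.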

What was measured:
Assay in all cases: NCI-60 cell line screen, 48 h
[1] = tested on: A498 renal
[2] = tested on: ACHN renal
[3] = tested on: BT-549 breast
[4] = tested on: HCT-116 colon
[5] = tested on: HL-60(TB) leukemia
[6] = tested on: MDA-MB-435
[7] = tested on: OVCAR-4 ovarian
[8] = tested on: OVCAR-8 ovarian
[9] = tested on: SK-MEL-5 melanoma
[10] = tested on: TK-10 renal

SMILES | GI50 [1] [µM] | TGI [1] [µM] | GI50 [2] [µM] | TGI [2] [µM] | GI50 [3] [µM] | TGI [3] [µM] | GI50 [4] [µM] | TGI [4] [µM] | GI50 [5] [µM] | TGI [5] [µM] | GI50 [6] [µM] | TGI [6] [µM] | GI50 [7] [µM] | TGI [7] [µM] | GI50 [8] [µM] | TGI [8] [µM] | GI50 [9] [µM] | TGI [9] [µM] | GI50 [10] [µM] | TGI [10] [µM]
COc1ccc(/C=C2\CN(C(=O)CCN3CCC(=NO)CC3)C/C(=C\c3ccc(OC)cc3)C2=O)cc1 | 1.6 | 3.2 | 1.95 | 4.05 | 2.17 | 6.08 | 1.74 | 3.23 | 2.8 | 8.27 | 1.76 | 3.49 | 3.34 | 17.7 | 3.22 | 16 | 1.82 | 3.29 | 2.86 | 10.4
O/N=c1/ccn(O)c2ccccc12 | – | 1.75 | – | 2.67 | – | 3.13 | – | 11.3 | – | 8.8 | – | 17.4 | – | 4.43 | – | 1.81 | – | 2.77 | – | 5.87
COc1ccccc1/C=C1\Sc2scc(-c3cccc([N+](=O)[O-])c3)[n+]2C1=O | – | 48.9 | – | 9.93 | – | 12.6 | – | 16.7 | – | 1.17 | – | 18.2 | – | 43.2 | – | 24.8 | – | 8.86 | – | 10.7
CC(NC1=CC(=O)c2ncccc2C1=O)C(O)c1ccccc1 (stereo not given) | – | 27.7 | – | 43.7 | – | 7.25 | – | 15.2 | – | 16.5 | – | 3.02 | – | 22.3 | – | 36.2 | – | 2.6 | – | > 100
CN(C)CCN1C(=O)CC[C@@]2(C)C1=CC[C@@H]1[C@@H]2CC[C@@]2(C)[C@H]1CC[C@]2(C)O | – | > 100 | – | > 100 | – | > 100 | – | > 100 | – | > 100 | – | > 100 | – | > 100 | – | > 100 | – | > 100 | – | > 100
O=C1C(C(O)(C(F)(F)Cl)C(F)(F)Cl)CCC1C(O)(C(F)(F)Cl)C(F)(F)Cl (stereo not given) | – | > 10 | – | > 10 | – | > 10 | – | 5.71 | – | > 10 | – | > 10 | – | > 10 | – | > 10 | – | > 10 | – | > 10
COC(=O)C1Cc2c([nH]c3ccccc23)C(c2cccc(O)c2)N1 (stereo not given) | – | > 100 | – | > 100 | – | 72 | – | > 100 | – | 48.2 | – | 36.6 | – | > 100 | – | > 100 | – | > 100 | – | > 100
COC(=O)C1Cc2ccc(C)cc2C1=O (stereo not given) | – | > 100 | – | > 100 | – | > 100 | – | > 100 | – | > 100 | – | > 100 | – | > 100 | – | > 100 | – | > 100 | – | > 100
S=C(NNC1=NCCCN1)Nc1ccccc1 | – | > 100 | – | > 100 | – | > 100 | – | > 100 | – | > 100 | – | > 100 | – | > 100 | – | > 100 | – | > 100 | – | > 100
N#C/C(=C1\N=C(c2ccccc2O)Oc2ccccc21)c1ccc([N+](=O)[O-])cc1 | – | > 100 | – | > 100 | – | > 100 | – | > 100 | – | > 100 | – | > 100 | – | > 100 | – | > 100 | – | > 100 | – | > 100
N#Cc1ncn(-c2ccccc2)c1N | – | > 100 | – | > 100 | – | > 100 | – | > 100 | – | > 100 | – | > 100 | – | > 100 | – | > 100 | – | > 100 | – | > 100
Cc1cn(CC2=NCCN2)c(=O)[nH]c1=O | – | > 100 | – | > 100 | – | > 100 | – | > 100 | – | > 100 | – | > 100 | – | > 100 | – | > 100 | – | > 100 | – | > 100
O=C(c1ccccc1)c1nn(-c2ccc(Cl)cc2)c2nc3nc(-c4ccccc4)cc(=O)n3nc12 | 58.8 | > 100 | 37.4 | > 100 | 26.2 | 62.8 | 19.9 | 52.2 | 3.48 | 14.8 | 6.65 | > 100 | 39.9 | > 100 | 48.3 | > 100 | 20.4 | 51.9 | 31.8 | 85.6
CCOC(=O)c1c(O)[nH]c(=O)c(CC)c1C | – | > 100 | – | > 100 | – | > 100 | – | > 100 | – | > 100 | – | > 100 | – | > 100 | – | > 100 | – | > 100 | – | > 100
CC(C)(C)c1cc(C(=O)/C=C/c2ccc(O)c(O)c2O)cc(C(C)(C)C)c1O | – | 34.4 | – | 18.9 | – | 28.2 | – | 12.7 | – | 5.82 | – | 36.7 | – | 26.5 | – | > 63.7 | – | 19 | – | 18.3
Cc1ccc(-c2sc(-c3ccc(C)cc3)c3c2C2CCC3C2)cc1 | – | > 50 | – | > 50 | – | > 50 | – | > 50 | – | > 50 | – | > 50 | – | > 50 | – | > 50 | – | > 50 | – | > 50
O=[N+]([O-])c1ccc(Cl)cc1-n1nc(-c2ccccc2)cc1-c1ccccc1 | – | > 100 | – | > 100 | – | > 100 | – | > 100 | – | > 100 | – | > 100 | – | > 100 | – | > 100 | – | > 100 | – | > 100
COc1cc([C@@H]2c3cc4c(cc3[C@H](OC3OC5COC(C(C)C)OC5C(O)C3O)C3COC(=O)[C@@H]32)OCO4)cc(OC)c1O (stereo not given in full) | – | 22.8 | – | 15.6 | – | 15.9 | – | 13.5 | – | > 100 | – | 19.2 | – | 37.6 | – | 25.9 | – | 22.6 | – | 93.5
O=c1[nH]c2cc(C(F)(F)F)ccc2nc1Cc1ccccc1 | – | > 100 | – | > 100 | – | > 100 | – | > 100 | – | > 100 | – | > 100 | – | > 100 | – | > 100 | – | > 100 | – | > 100
COc1ncnc2c1cnn2Cc1cn(COCC(O)CO)nn1 (stereo not given) | – | > 100 | – | > 100 | – | > 100 | – | > 100 | – | > 100 | – | > 100 | – | > 100 | – | > 100 | – | > 100 | – | > 100
Clc1ccccc1/C=C/c1nsc(/C=C/c2ccccc2Cl)n1 | – | > 100 | – | > 100 | – | > 100 | – | > 100 | – | 52.5 | – | > 100 | – | > 100 | – | > 100 | – | > 100 | – | 78.1
CC(=O)OC1/C(=C/c2ccc([N+](=O)[O-])cc2)C[C@H]2[C@@H]3CC=C4C[C@@H](OC(C)=O)CC[C@]4(C)[C@H]3CC[C@]12C (stereo not given in full) | – | > 96.2 | – | > 100 | – | > 100 | – | > 100 | – | 13.3 | – | > 100 | – | > 100 | – | > 100 | – | > 100 | – | > 80.3
COc1cc2c(cc1OC)C1Cc3ccccc3CCN1CC2 (stereo not given) | – | > 100 | – | > 100 | – | > 100 | – | > 100 | – | > 100 | – | > 100 | – | > 100 | – | > 100 | – | > 100 | – | > 100
CCC1(OC(=O)CN2CCN(CCO)CC2)C(=O)OCc2c1cc1n(c2=O)Cc2cc3ccccc3nc2-1 (stereo not given) | – | 1.78 | – | 1.52 | – | 20.4 | – | 3.35 | – | 3.24 | – | 4.38 | – | 17 | – | 16 | – | 1.15 | – | > 100
N#Cc1cccc(C2ON=C(c3ccc([N+](=O)[O-])cc3)N2C23CC4CC(CC(C4)C2)C3)c1 (stereo not given) | – | > 100 | – | > 100 | – | > 100 | – | > 100 | – | > 100 | – | > 100 | – | 76.8 | – | > 100 | – | > 100 | – | > 100
N=C(/C=C/c1ccc(-c2cn3cc(/C=C/C(=N)N4CCCC4)ccc3n2)cc1)N1CCCC1 | – | > 100 | – | > 100 | – | > 100 | – | > 100 | – | > 100 | – | > 100 | – | > 100 | – | > 100 | – | > 100 | – | > 100
CCOC(=O)c1cccc(NC(=O)CBr)c1 | – | 14.7 | – | 3.09 | – | 4.15 | – | 1.88 | – | 3.58 | – | 2.51 | – | 3.73 | – | > 21.6 | – | 2.76 | – | 3.18
O=C(c1ccc(Cl)cc1Cl)N(Cc1cccnc1)C(=S)N(Cc1cccnc1)C(=O)c1ccc(Cl)cc1Cl | – | 24.4 | – | 23.5 | – | 14.8 | – | 6.19 | – | 15.3 | – | 66 | – | 7.99 | – | 13.5 | – | 11.9 | – | 8.7
